Measured values taken from BigSolDB 2.1.

O=S(=O)(c1ccccc1)N(F)S(=O)(=O)c1ccccc1
Conditions | solubility (mole fraction)
in 2-butanone, 273.35 K | 0.0332
in 2-butanone, 278.35 K | 0.0396
in 2-butanone, 283.35 K | 0.047
in 2-butanone, 288.35 K | 0.0546
in 2-butanone, 292.85 K | 0.0637
in 2-butanone, 297.95 K | 0.0734
in 2-butanone, 302.65 K | 0.0852
in 2-butanone, 307.35 K | 0.0978
in 2-butanone, 312.55 K | 0.111
in 2-butanone, 316.95 K | 0.128
in 2-butanone, 322.85 K | 0.146
in 2-pentanone, 273.35 K | 0.0316
in 2-pentanone, 278.35 K | 0.038
in 2-pentanone, 283.35 K | 0.0455
in 2-pentanone, 288.35 K | 0.0534
in 2-pentanone, 292.85 K | 0.0628
in 2-pentanone, 297.95 K | 0.073
in 2-pentanone, 302.65 K | 0.0853
in 2-pentanone, 307.35 K | 0.0988
in 2-pentanone, 312.55 K | 0.113
in 2-pentanone, 316.95 K | 0.131
in 2-pentanone, 322.85 K | 0.151
in acetone, 273.35 K | 0.0309
in acetone, 278.35 K | 0.0376
in acetone, 283.35 K | 0.0455
in acetone, 288.35 K | 0.0539
in acetone, 292.85 K | 0.0639
in acetone, 297.95 K | 0.0749
in acetone, 302.65 K | 0.0885
in acetone, 307.35 K | 0.104
in acetone, 312.55 K | 0.119
in acetone, 316.95 K | 0.14
in acetone, 322.85 K | 0.162
in acetonitrile, 273.35 K | 0.00951
in acetonitrile, 278.35 K | 0.0126
in acetonitrile, 283.35 K | 0.0165
in acetonitrile, 288.35 K | 0.021
in acetonitrile, 292.85 K | 0.0267
in acetonitrile, 297.95 K | 0.0334
in acetonitrile, 302.65 K | 0.0422
in acetonitrile, 307.35 K | 0.0528
in acetonitrile, 312.55 K | 0.0645
in acetonitrile, 316.95 K | 0.0804
in acetonitrile, 322.85 K | 0.0996
in ethanol, 273.35 K | 0.000599
in ethanol, 278.35 K | 0.000791
in ethanol, 283.35 K | 0.00103
in ethanol, 288.35 K | 0.00134
in ethanol, 292.85 K | 0.00168
in ethanol, 297.95 K | 0.00214
in ethanol, 302.65 K | 0.00268
in ethanol, 307.35 K | 0.00331
in ethanol, 312.55 K | 0.00417
in ethanol, 316.95 K | 0.00503
in ethanol, 322.85 K | 0.00641
in ethyl acetate, 273.35 K | 0.0243
in ethyl acetate, 278.35 K | 0.0295
in ethyl acetate, 283.35 K | 0.0353
in ethyl acetate, 288.35 K | 0.0415
in ethyl acetate, 292.85 K | 0.0489
in ethyl acetate, 297.95 K | 0.0568
in ethyl acetate, 302.65 K | 0.0668
in ethyl acetate, 307.35 K | 0.0775
in ethyl acetate, 312.55 K | 0.0885
in ethyl acetate, 316.95 K | 0.103
in ethyl acetate, 322.85 K | 0.119
in ethyl formate, 273.35 K | 0.0206
in ethyl formate, 278.35 K | 0.0254
in ethyl formate, 283.35 K | 0.0309
in ethyl formate, 288.35 K | 0.0369
in ethyl formate, 292.85 K | 0.0441
in ethyl formate, 297.95 K | 0.052
in ethyl formate, 302.65 K | 0.0619
in ethyl formate, 307.35 K | 0.0728
in ethyl formate, 312.55 K | 0.0843
in ethyl formate, 316.95 K | 0.0992
in ethyl formate, 322.85 K | 0.116
in isobutanol, 273.35 K | 0.000182
in isobutanol, 278.35 K | 0.000265
in isobutanol, 283.35 K | 0.000382
in isobutanol, 288.35 K | 0.000545
in isobutanol, 292.85 K | 0.000744
in isobutanol, 297.95 K | 0.00104
in isobutanol, 302.65 K | 0.00141
in isobutanol, 307.35 K | 0.00188
in isobutanol, 312.55 K | 0.00258
in isobutanol, 316.95 K | 0.00332
in isobutanol, 322.85 K | 0.00467
in isopentanol, 273.35 K | 0.000312
in isopentanol, 278.35 K | 0.000432
in isopentanol, 283.35 K | 0.000594
in isopentanol, 288.35 K | 0.000812
in isopentanol, 292.85 K | 0.00106
in isopentanol, 297.95 K | 0.00142
in isopentanol, 302.65 K | 0.00184
in isopentanol, 307.35 K | 0.00238
in isopentanol, 312.55 K | 0.00312
in isopentanol, 316.95 K | 0.00389
in isopentanol, 322.85 K | 0.00519
in isopropanol, 273.35 K | 0.000584
in isopropanol, 278.35 K | 0.000798
in isopropanol, 283.35 K | 0.000929
in isopropanol, 288.35 K | 0.00121
in isopropanol, 292.85 K | 0.0015
in isopropanol, 297.95 K | 0.00186
in isopropanol, 302.65 K | 0.00226
in isopropanol, 307.35 K | 0.00275
in isopropanol, 312.55 K | 0.00346
in isopropanol, 316.95 K | 0.0041
in isopropanol, 322.85 K | 0.00495
in methanol, 273.35 K | 0.000611
in methanol, 278.35 K | 0.000792
in methanol, 283.35 K | 0.00102
in methanol, 288.35 K | 0.0013
in methanol, 292.85 K | 0.0016
in methanol, 297.95 K | 0.00201
in methanol, 302.65 K | 0.00248
in methanol, 307.35 K | 0.00302
in methanol, 312.55 K | 0.00374
in methanol, 316.95 K | 0.00445
in methanol, 322.85 K | 0.0056
in methyl acetate, 273.35 K | 0.0285
in methyl acetate, 278.35 K | 0.0346
in methyl acetate, 283.35 K | 0.0417
in methyl acetate, 288.35 K | 0.0492
in methyl acetate, 292.85 K | 0.0583
in methyl acetate, 297.95 K | 0.0681
in methyl acetate, 302.65 K | 0.0803
in methyl acetate, 307.35 K | 0.0934
in methyl acetate, 312.55 K | 0.107
in methyl acetate, 316.95 K | 0.126
in methyl acetate, 322.85 K | 0.145
in n-butanol, 273.35 K | 0.00053
in n-butanol, 278.35 K | 0.000696
in n-butanol, 283.35 K | 0.000909
in n-butanol, 288.35 K | 0.00117
in n-butanol, 292.85 K | 0.00147
in n-butanol, 297.95 K | 0.00187
in n-butanol, 302.65 K | 0.00233
in n-butanol, 307.35 K | 0.00287
in n-butanol, 312.55 K | 0.0036
in n-butanol, 316.95 K | 0.00433
in n-butanol, 322.85 K | 0.00551
in n-pentanol, 273.35 K | 0.000465
in n-pentanol, 278.35 K | 0.000632
in n-pentanol, 283.35 K | 0.000843
in n-pentanol, 288.35 K | 0.00112
in n-pentanol, 292.85 K | 0.00142
in n-pentanol, 297.95 K | 0.00186
in n-pentanol, 302.65 K | 0.00236
in n-pentanol, 307.35 K | 0.00298
in n-pentanol, 312.55 K | 0.00382
in n-pentanol, 316.95 K | 0.0047
in n-pentanol, 322.85 K | 0.00613
in n-propanol, 273.35 K | 0.000452
in n-propanol, 278.35 K | 0.000616
in n-propanol, 283.35 K | 0.000832
in n-propanol, 288.35 K | 0.00111
in n-propanol, 292.85 K | 0.00142
in n-propanol, 297.95 K | 0.00187
in n-propanol, 302.65 K | 0.00239
in n-propanol, 307.35 K | 0.00304
in n-propanol, 312.55 K | 0.00392
in n-propanol, 316.95 K | 0.00485
in n-propanol, 322.85 K | 0.00633
in toluene, 273.35 K | 0.0112
in toluene, 278.35 K | 0.0145
in toluene, 283.35 K | 0.0185
in toluene, 288.35 K | 0.0228
in toluene, 292.85 K | 0.0284
in toluene, 297.95 K | 0.0346
in toluene, 302.65 K | 0.0429
in toluene, 307.35 K | 0.052
in toluene, 312.55 K | 0.0623
in toluene, 316.95 K | 0.076
in toluene, 322.85 K | 0.092
